# Laboratory results: PMC6576746, “Rational discovery of dual-indication multi-target PDE/Kinase inhibitor for precision anti-cancer therapy using structural systems pharmacology” (PLoS Computational Biology, 2019)
# Assays:
# Test in all cases: biochemical
# Design in all cases: DiscoverX KinomeScan competition binding assay across human kinases; per cent of control at 10 and 100 uM
# [1] = molecular target: T1, CDC2L5 (Homo sapiens, UniProt Q14004); settings: competition binding, % of control; read-out: Percent Control (100 uM Levosimendan)
# T1 construct: gene CDK13
# Procedure, shortened: (§1)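 KinomeScan competition binding was run across a human kinase panel at 10 μM and 100 μM levosimendan. Results are %control = (test − positive control)/(negative control − positive control) × 100.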
# [2] = molecular target: MKNK1 (Homo sapiens, UniProt Q9BUB5); settings: competition binding, % of control; read-out: Percent Control (100 uM Levosimendan)
# Procedure, shortened: as §1
# [3] = molecular target: T2, RSK4(Kin.Dom.2-C-terminal) (Homo sapiens, UniProt Q9UK32); settings: competition binding, % of control
# T2 construct: gene RPS6KA6; Kin.Dom.2-C-terminal
# Procedure, shortened: as §1
# [4] = molecular target: T3, ICK (Homo sapiens, UniProt Q9UPZ9); settings: competition binding, % of control; read-out: Percent Control (100 uM Levosimendan)
# T3 construct: gene CILK1
# Procedure, shortened: as §1
# [5] = molecular target: EPHA4 (Homo sapiens, UniProt P54764); settings: competition binding, % of control; read-out: Percent Control (100 uM Levosimendan)
# Procedure, shortened: as §1
# [6] = molecular target: CAMK2A (Homo sapiens, UniProt Q9UQM7); settings: competition binding, % of control; read-out: Percent Control (100 uM Levosimendan)
# Procedure, shortened: as §1
# [7] = molecular target: MERTK (Homo sapiens, UniProt Q12866); settings: competition binding, % of control; read-out: Percent Control (100 uM Levosimendan)
# Procedure, shortened: as §1
# [8] = molecular target: PRKG2 (Homo sapiens, UniProt Q13237); settings: competition binding, % of control; read-out: Percent Control (100 uM Levosimendan)
# Procedure, shortened: as §1
# [9] = molecular target: T4, MKK7 (Homo sapiens, UniProt O14733); settings: competition binding, % of control; read-out: Percent Control (100 uM Levosimendan)
# T4 construct: gene MAP2K7
# Procedure, shortened: as §1
# [10] = molecular target: T5, ABL1(E255K)-phosphorylated (Homo sapiens, UniProt P00519, E255K); settings: competition binding, % of control
# T5 construct: phosphorylated
# Procedure, shortened: as §1
# [11] = molecular target: BTK (Homo sapiens, UniProt Q06187); settings: competition binding, % of control; read-out: Percent Control (100 uM Levosimendan)
# Procedure, shortened: as §1
# [12] = molecular target: FLT3-autoinhibited (Homo sapiens, UniProt P36888); settings: competition binding, % of control; read-out: Percent Control (100 uM Levosimendan)
# Procedure, shortened: as §1
# [13] = molecular target: DMPK (Homo sapiens, UniProt Q09013); settings: competition binding, % of control
# Procedure, shortened: as §1
# [14] = molecular target: RET(V804M) (Homo sapiens, UniProt P07949, V804M); settings: competition binding, % of control; read-out: Percent Control (100 uM Levosimendan)
# Procedure, shortened: as §1
# [15] = molecular target: RAF1 (Homo sapiens, UniProt P04049); settings: competition binding, % of control; read-out: Percent Control (100 uM Levosimendan)
# Procedure, shortened: as §1
# [16] = molecular target: GRK1 (Homo sapiens, UniProt Q15835); settings: competition binding, % of control; read-out: Percent Control (100 uM Levosimendan)
# Procedure, shortened: as §1
# [17] = molecular target: FLT1 (Homo sapiens, UniProt P17948); settings: competition binding, % of control
# Procedure, shortened: as §1
# [18] = molecular target: CSNK1A1L (Homo sapiens, UniProt Q8N752); settings: competition binding, % of control; read-out: Percent Control (100 uM Levosimendan)
# Procedure, shortened: as §1
# [19] = read-out: Percent Control (10 uM Levosimendan)
# [20] = read-out: Percent Control (100 uM Levosimendan)
# T2 sequence (Q9UK32 whole entry): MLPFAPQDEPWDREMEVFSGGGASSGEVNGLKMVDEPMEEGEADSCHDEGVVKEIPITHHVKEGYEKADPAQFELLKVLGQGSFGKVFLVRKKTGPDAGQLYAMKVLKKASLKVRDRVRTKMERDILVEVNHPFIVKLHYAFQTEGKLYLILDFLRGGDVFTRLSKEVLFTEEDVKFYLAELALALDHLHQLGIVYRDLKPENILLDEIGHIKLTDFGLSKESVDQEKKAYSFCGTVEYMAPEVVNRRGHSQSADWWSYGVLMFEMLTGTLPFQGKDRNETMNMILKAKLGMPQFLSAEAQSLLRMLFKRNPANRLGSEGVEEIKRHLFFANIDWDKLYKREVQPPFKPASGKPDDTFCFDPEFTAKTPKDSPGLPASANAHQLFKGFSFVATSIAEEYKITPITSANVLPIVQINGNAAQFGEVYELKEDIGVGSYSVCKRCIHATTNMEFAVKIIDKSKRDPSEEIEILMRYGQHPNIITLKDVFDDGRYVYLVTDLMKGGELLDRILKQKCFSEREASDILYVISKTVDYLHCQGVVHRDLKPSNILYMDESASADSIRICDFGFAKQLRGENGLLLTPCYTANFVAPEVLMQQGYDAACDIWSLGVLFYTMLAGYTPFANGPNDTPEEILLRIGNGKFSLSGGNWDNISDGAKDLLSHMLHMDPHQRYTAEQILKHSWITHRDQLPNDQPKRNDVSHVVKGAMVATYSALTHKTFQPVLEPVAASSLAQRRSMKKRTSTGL
# Chain of DMPK (Q09013 whole entry): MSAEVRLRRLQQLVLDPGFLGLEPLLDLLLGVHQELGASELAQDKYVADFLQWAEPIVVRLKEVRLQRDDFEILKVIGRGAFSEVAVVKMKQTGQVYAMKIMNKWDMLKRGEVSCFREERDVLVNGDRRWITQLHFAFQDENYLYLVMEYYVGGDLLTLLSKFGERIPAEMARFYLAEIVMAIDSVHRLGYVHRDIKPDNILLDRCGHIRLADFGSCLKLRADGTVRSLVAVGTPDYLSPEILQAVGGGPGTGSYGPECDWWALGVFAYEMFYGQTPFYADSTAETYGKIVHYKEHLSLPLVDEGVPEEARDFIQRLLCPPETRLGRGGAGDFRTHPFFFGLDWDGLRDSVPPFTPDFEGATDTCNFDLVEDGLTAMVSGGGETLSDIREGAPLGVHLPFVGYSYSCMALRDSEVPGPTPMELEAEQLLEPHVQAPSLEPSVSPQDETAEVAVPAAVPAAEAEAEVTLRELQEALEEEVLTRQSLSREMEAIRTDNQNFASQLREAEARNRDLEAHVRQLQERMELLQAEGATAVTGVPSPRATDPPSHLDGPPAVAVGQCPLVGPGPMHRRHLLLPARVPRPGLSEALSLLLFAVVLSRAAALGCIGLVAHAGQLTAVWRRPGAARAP
# T5 sequence (P00519 whole entry E255K): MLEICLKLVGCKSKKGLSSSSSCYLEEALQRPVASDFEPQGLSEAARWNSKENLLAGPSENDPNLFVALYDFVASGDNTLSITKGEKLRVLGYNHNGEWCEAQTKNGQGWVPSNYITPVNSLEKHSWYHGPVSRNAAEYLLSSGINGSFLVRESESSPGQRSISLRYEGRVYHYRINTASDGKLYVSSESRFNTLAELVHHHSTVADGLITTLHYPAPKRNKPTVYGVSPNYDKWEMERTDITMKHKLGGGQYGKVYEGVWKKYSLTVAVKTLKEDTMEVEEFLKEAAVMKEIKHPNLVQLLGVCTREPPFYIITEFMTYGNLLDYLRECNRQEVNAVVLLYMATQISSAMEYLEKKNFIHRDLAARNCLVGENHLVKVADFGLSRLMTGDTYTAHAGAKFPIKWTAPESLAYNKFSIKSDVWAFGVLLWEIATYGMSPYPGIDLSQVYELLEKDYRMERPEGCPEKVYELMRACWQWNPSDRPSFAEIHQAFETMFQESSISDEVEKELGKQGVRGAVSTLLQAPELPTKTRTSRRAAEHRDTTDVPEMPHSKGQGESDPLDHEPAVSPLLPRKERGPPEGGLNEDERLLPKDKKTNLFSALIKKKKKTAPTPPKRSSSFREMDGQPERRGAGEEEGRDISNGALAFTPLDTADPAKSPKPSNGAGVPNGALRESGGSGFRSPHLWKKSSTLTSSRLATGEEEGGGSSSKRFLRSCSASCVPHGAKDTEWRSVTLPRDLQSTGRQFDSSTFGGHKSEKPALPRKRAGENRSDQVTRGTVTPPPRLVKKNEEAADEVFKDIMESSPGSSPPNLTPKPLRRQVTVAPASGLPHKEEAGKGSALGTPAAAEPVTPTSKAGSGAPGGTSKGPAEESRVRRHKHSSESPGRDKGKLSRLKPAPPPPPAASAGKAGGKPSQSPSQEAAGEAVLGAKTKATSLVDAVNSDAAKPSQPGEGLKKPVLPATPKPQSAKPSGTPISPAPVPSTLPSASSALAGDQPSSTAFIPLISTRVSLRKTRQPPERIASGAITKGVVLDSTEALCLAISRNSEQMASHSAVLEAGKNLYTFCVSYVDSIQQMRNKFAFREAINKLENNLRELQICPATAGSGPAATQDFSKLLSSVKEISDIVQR
# Chain of FLT1 (P17948 whole entry): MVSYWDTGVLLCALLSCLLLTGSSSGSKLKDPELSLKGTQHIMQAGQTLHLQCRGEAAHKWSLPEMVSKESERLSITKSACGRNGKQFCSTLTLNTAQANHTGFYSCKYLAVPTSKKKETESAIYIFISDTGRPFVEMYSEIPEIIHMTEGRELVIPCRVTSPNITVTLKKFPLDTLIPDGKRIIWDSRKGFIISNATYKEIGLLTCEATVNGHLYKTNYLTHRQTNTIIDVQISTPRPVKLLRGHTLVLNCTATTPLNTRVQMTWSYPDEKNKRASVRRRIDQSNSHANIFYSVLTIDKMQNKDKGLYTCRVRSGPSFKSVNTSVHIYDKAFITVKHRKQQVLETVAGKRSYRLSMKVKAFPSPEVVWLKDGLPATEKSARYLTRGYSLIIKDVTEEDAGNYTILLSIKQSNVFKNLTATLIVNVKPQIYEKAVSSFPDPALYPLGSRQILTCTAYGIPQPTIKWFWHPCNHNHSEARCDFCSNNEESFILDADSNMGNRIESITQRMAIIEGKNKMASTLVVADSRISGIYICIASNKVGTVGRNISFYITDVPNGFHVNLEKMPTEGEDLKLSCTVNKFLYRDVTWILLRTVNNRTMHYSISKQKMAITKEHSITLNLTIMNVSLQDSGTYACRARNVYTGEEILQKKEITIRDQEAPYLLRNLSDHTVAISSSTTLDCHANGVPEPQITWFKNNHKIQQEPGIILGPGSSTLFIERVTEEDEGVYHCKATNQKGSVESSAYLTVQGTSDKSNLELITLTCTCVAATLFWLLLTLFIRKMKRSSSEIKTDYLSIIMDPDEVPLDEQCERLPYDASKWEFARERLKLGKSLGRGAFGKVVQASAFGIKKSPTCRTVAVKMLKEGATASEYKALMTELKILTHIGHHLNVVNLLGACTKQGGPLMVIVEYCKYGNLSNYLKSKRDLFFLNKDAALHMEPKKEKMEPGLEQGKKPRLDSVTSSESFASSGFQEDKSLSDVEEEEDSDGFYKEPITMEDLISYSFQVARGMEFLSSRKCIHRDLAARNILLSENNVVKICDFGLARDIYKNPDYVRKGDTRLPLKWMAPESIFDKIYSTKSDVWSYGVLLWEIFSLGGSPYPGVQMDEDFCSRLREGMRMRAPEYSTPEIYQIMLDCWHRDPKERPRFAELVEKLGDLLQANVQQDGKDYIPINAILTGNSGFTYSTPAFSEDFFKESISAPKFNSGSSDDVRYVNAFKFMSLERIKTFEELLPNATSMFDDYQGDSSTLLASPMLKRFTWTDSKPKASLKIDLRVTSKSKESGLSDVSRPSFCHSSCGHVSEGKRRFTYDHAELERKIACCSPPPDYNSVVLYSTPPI
# Chain of EPHA4 (P54764 whole entry): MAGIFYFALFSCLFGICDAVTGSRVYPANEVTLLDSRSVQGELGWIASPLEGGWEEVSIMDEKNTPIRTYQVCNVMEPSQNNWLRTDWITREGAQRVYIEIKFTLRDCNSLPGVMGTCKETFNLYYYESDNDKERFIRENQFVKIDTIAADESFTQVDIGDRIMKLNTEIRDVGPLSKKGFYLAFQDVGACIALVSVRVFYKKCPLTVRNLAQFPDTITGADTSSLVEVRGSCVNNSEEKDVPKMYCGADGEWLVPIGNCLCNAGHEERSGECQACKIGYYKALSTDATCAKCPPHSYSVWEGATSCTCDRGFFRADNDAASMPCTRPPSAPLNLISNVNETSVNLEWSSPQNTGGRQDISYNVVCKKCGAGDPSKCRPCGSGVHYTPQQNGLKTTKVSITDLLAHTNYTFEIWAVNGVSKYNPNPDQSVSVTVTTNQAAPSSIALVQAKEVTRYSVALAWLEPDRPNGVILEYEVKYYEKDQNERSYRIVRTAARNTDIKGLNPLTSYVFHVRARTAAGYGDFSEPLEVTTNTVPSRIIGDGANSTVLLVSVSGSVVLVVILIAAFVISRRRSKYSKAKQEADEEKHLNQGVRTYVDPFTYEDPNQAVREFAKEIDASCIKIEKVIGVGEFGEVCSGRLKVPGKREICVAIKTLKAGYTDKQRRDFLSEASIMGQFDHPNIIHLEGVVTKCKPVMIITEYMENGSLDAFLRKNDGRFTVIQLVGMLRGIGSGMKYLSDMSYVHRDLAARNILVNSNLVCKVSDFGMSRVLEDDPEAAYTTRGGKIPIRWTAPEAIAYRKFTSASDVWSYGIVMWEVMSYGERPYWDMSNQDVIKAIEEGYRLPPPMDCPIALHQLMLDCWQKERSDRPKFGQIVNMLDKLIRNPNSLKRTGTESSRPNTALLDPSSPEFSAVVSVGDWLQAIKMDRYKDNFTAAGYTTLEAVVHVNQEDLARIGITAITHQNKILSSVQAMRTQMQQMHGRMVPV
smiles,measurement,setting,value
C[C@@H]1CC(=O)NN=C1c1ccc(NN=C(C#N)C#N)cc1 [levosimendan],remaining binding at 100 µM,[1],100%
same,remaining binding at 100 µM,[2],65%
same,remaining binding at 10 µM,[3]; [19],82%
same,remaining binding at 100 µM,[3]; [20],31%
same,remaining binding at 100 µM,[4],94%
same,remaining binding at 100 µM,[5],82%
same,remaining binding at 100 µM,[6],73%
same,remaining binding at 100 µM,[7],70%
same,remaining binding at 100 µM,[8],98%
same,remaining binding at 100 µM,[9],100%
same,remaining binding at 10 µM,[10]; [19],97%
same,remaining binding at 100 µM,[10]; [20],34%
same,remaining binding at 100 µM,[11],100%
same,remaining binding at 100 µM,[12],98%
same,remaining binding at 10 µM,[13]; [19],100%
same,remaining binding at 100 µM,[13]; [20],29%
same,remaining binding at 100 µM,[14],80%
same,remaining binding at 100 µM,[15],77%
same,remaining binding at 100 µM,[16],67%
same,remaining binding at 10 µM,[17]; [19],98%
same,remaining binding at 100 µM,[17]; [20],44%
same,remaining binding at 100 µM,[18],55%
